Experimental data reported in patent US11034718B2, “C-3 novel triterpenone with C-17 reverse amide derivatives as HIV inhibitors” (HETERO LABS LIMITED, priority 2015, dated 2021).
Counter-ions that a name gives are not always drawn. Like-named read-outs stand apart in the source and are kept apart here.

Columns and labels:
Type in all cases: cell-based
HIV-1 pNL4-3 V7A = experiment: Antiviral activity against pNL4-3/V7A strain in MT4 cells (p24 estimation); conditions: Human immunodeficiency virus 1, MT4, 96 h, read-out: pNL4-3 V7A IC50
Protocol: (§1) Example 78: Evaluation of Compounds Antiviral Activity Against pNL4-3/WT & V7A Strains in MT4 Cells
(§2) MT4 cells were Transfected with HIV-1 Plasmid (pNL4-3-WT & V7A) (Cells were incubating with required number of TCID50 of HIV-1 for 1.5 h at 37° C.). After infection, the infected cells were plated at the concentration of 3×10^4 cells per well in 96 well plate. Test compound was added to the test plate in defined format with the final concentration of DMSO is not more than 1%. Incubation was carried out in CO2 incubator for 4 days for viral infection. At the end of incubation period an aliquot from each well was taken for p24 estimation. p24 estimation was carried out using Advance biosciences kit as per the procedure detailed by supplier.

HIV-1 pNL4-3 WT = experiment: Antiviral activity against pNL4-3/WT strain in MT4 cells (p24 estimation); conditions: Human immunodeficiency virus 1, MT4, 96 h, read-out: pNL4-3 WT IC50
Protocol: as §1, §2

HIV-1 strain 92HT599 = experiment: Antiviral activity against HIV-1 strain 92HT599 in MT2 cells (p24 estimation); conditions: HIV-1 92HT599, ~96 hours
Summary of the method: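 Percent inhibition versus vehicle controls came from p24 quantified in supernatant aliquots. These were taken after ~96 h incubation of compound (DMSO ≤1%) with MT2 cells infected at 10 TCID50/30,000 cells.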

[1] = Human immunodeficiency virus 1, 0% serum binding assay, read-out: IC50 0% serum
[2] = Human immunodeficiency virus 1, 40% serum binding assay, read-out: IC50 40% serum

| SMILES | IC50 (HIV-1 pNL4-3 V7A) [nM] | IC50 (HIV-1 pNL4-3 WT) [nM] | IC50 (HIV-1 strain 92HT599; [1]) [nM] | IC50 (HIV-1 strain 92HT599; [2]) [nM] |
| --- | --- | --- | --- | --- |
| CC(C)C1=C2[C@H]3CC[C@@H]4[C@@]5(C)CC[C@H](OC(=O)[C@H]6C[C@@H](C(=O)O)C6(C)C)C(C)(C)[C@@H]5CC[C@@]4(C)[C@]3(C)CC[C@@]2(NC(=O)C(C)(C)NC(=O)c2ccc(Cl)cc2)CC1=O [Example 1, (1R,3S)-3-((((3aR,5aR,5bR,7aR,9S,11aR,11bR,13aS)-3a-(2-(4-chlorobenzamido)-2-methylpropanamido)-1-isopropyl-5a,5b,8,8,11a-pentamethyl-2-oxo-3,3a,4,5,5a,5b,6,7,7a,8,9,10,11,11a,11b,12,13,13a-octadecahydro-2H-cyclopenta[a]chrysen-9-yl)oxy)carbonyl)-2,2-dimethylcyclobutane-1-carboxylic acid] | < 10 | < 5 | < 3 | < 50 |
| CC(C)C1=C2[C@H]3CC[C@@H]4[C@@]5(C)CC[C@H](OC(=O)[C@H]6C[C@@H](C(=O)O)C6(C)C)C(C)(C)[C@@H]5CC[C@@]4(C)[C@]3(C)CC[C@@]2(NC(=O)C(C)(C)NC(=O)c2cnccn2)CC1=O [Example 5, (1R,3S)-3-((((3aR,5aR,5bR,7aR,9S,11aR,11bR,13aS)-1-isopropyl-5a,5b,8,8,11a-pentamethyl-3a-(2-methyl-2-(pyrazine-2-carboxamido)propanamido)-2-oxo-3,3a,4,5,5a,5b,6,7,7a,8,9,10,11,11a,11b,12,13,13a-octadecahydro-2H-cyclopenta[a]chrysen-9-yl)oxy)carbonyl)-2,2-dimethylcyclobutane-1-carboxylic acid] | < 10 | < 5 | < 3 | 50 to 200 |
| Cc1cnc(C(=O)NC(C)(C)C(=O)N[C@@]23CC[C@]4(C)[C@H](CC[C@@H]5[C@@]6(C)CC[C@H](OC(=O)[C@H]7C[C@@H](C(=O)O)C7(C)C)C(C)(C)[C@@H]6CC[C@]54C)C2=C(C(C)C)C(=O)C3)cn1 [Example 7, (1R,3S)-3-((((3aR,5aR,5bR,7aR,9S,11aR,11bR,13aS)-1-isopropyl-5a,5b,8,8,11a-pentamethyl-3a-(2-methyl-2-(5-methylpyrazine-2-carboxamido)propanamido)-2-oxo-3,3a,4,5,5a,5b,6,7,7a,8,9,10,11,11a,11b,12,13,13a-octadecahydro-2H-cyclopenta[a]chrysen-9-yl)oxy)carbonyl)-2,2-dimethylcyclobutane-1-carboxylic acid] | < 10 | < 5 | < 3 | < 50 |
| Cc1nc(C)c(C(=O)NC(C)(C)C(=O)N[C@@]23CC[C@]4(C)[C@H](CC[C@@H]5[C@@]6(C)CC[C@H](OC(=O)[C@H]7C[C@@H](C(=O)O)C7(C)C)C(C)(C)[C@@H]6CC[C@]54C)C2=C(C(C)C)C(=O)C3)s1 [Example 14, (1R,3S)-3-((((3aR,5aR,5bR,7aR,9S,11aR,11bR,13aS)-3a-(2-(2,4-dimethylthiazole-5-carboxamido)-2-methylpropanamido)-1-isopropyl-5a,5b,8,8,11a-pentamethyl-2-oxo-3,3a,4,5,5a,5b,6,7,7a,8,9,10,11,11a,11b,12,13,13a-octadecahydro-2H-cyclopenta[a]chrysen-9-yl)oxy)carbonyl)-2,2-dimethylcyclobutane-1-carboxylic acid] | 10 to 50 | < 5 | < 3 | < 50 |
| CC(C)C1=C2[C@H]3CC[C@@H]4[C@@]5(C)CC[C@H](OC(=O)[C@H]6C[C@@H](C(=O)O)C6(C)C)C(C)(C)[C@@H]5CC[C@@]4(C)[C@]3(C)CC[C@@]2(NC(=O)C(C)(C)NC(=O)c2ccc3[nH]c(-c4cnccn4)nc3c2)CC1=O [Example 15, (1R,3S)-3-((((3aR,5aR,5bR,7aR,9S,11aR,11bR,13aS)-1-isopropyl-5a,5b,8,8,11a-pentamethyl-3a-(2-methyl-2-(2-(pyrazin-2-yl)-1H-benzo[d]imidazole-5-carboxamido)propanamido)-2-oxo-3,3a,4,5,5a,5b,6,7,7a,8,9,10,11,11a,11b,12,13,13a-octadecahydro-2H-cyclopenta[a]chrysen-9-yl)oxy)carbonyl)-2,2-dimethylcyclobutane-1-carboxylic acid] | > 50 | < 5 | < 3 | < 50 |
| CC(C)C1=C2[C@H]3CC[C@@H]4[C@@]5(C)CC[C@H](OC(=O)[C@H]6C[C@@H](C(=O)O)C6(C)C)C(C)(C)[C@@H]5CC[C@@]4(C)[C@]3(C)CC[C@@]2(NC(=O)C(C)(C)NC(=O)c2nccn2C)CC1=O [Example 16, (1R,3S)-3-((((3aR,5aR,5bR,7aR,9S,11aR,11bR,13aS)-1-isopropyl-5a,5b,8,8,11a-pentamethyl-3a-(2-methyl-2-(1-methyl-1H-imidazole-2-carboxamido)propanamido)-2-oxo-3,3a,4,5,5a,5b,6,7,7a,8,9,10,11,11a,11b,12,13,13a-octadecahydro-2H-cyclopenta[a]chrysen-9-yl)oxy)carbonyl)-2,2-dimethylcyclobutane-1-carboxylic acid] | > 50 | 5.01 to 10 | < 3 | 50 to 200 |
| CC(C)C1=C2[C@H]3CC[C@@H]4[C@@]5(C)CC[C@H](OC(=O)[C@H]6C[C@@H](C(=O)O)C6(C)C)C(C)(C)[C@@H]5CC[C@@]4(C)[C@]3(C)CC[C@@]2(NC(=O)C(C)(C)NC(=O)c2cc(C(C)C)n[nH]2)CC1=O [Example 17, (1R,3S)-3-((((3aR,5aR,5bR,7aR,9S,11aR,11bR,13aS)-1-isopropyl-3a-(2-(3-isopropyl-1H-pyrazole-5-carboxamido)-2-methylpropanamido)-5a,5b,8,8,11a-pentamethyl-2-oxo-3,3a,4,5,5a,5b,6,7,7a,8,9,10,11,11a,11b,12,13,13a-octadecahydro-2H-cyclopenta[a]chrysen-9-yl)oxy)carbonyl)-2,2-dimethylcyclobutane-1-carboxylic acid] | < 10 | < 5 | < 3 | < 50 |
| CC(C)C1=C2[C@H]3CC[C@@H]4[C@@]5(C)CC[C@H](OC(=O)[C@H]6C[C@@H](C(=O)O)C6(C)C)C(C)(C)[C@@H]5CC[C@@]4(C)[C@]3(C)CC[C@@]2(NC(=O)C(C)(C)NC(=O)c2ccc(N3CCOCC3)cc2)CC1=O [Example 18, (1R,3S)-3-((((3aR,5aR,5bR,7aR,9S,11aR,11bR,13aS)-1-isopropyl-5a,5b,8,8,11a-pentamethyl-3a-(2-methyl-2-(4-morpholinobenzamido)propanamido)-2-oxo-3,3a,4,5,5a,5b,6,7,7a,8,9,10,11,11a,11b,12,13,13a-octadecahydro-2H-cyclopenta[a]chrysen-9-yl)oxy)carbonyl)-2,2-dimethylcyclobutane-1-carboxylic acid] | < 10 | < 5 | < 3 | < 50 |
| Cc1cccnc1C(=O)NC(C)(C)C(=O)N[C@@]12CC[C@]3(C)[C@H](CC[C@@H]4[C@@]5(C)CC[C@H](OC(=O)[C@H]6C[C@@H](C(=O)O)C6(C)C)C(C)(C)[C@@H]5CC[C@]43C)C1=C(C(C)C)C(=O)C2 [Example 29, (1R,3S)-3-((((3aR,5aR,5bR,7aR,9S,11aR,11bR,13aS)-1-isopropyl-5a,5b,8,8,11a-pentamethyl-3a-(2-methyl-2-(3-methylpicolinamido)propanamido)-2-oxo-3,3a,4,5,5a,5b,6,7,7a,8,9,10,11,11a,11b,12,13,13a-octadecahydro-2H-cyclopenta[a]chrysen-9-yl)oxy)carbonyl)-2,2-dimethylcyclobutane-1-carboxylic acid] | 10 to 50 | < 5 |  |  |
| CC(C)C1=C2[C@H]3CC[C@@H]4[C@@]5(C)CC[C@H](OC(=O)[C@H]6C[C@@H](C(=O)O)C6(C)C)C(C)(C)[C@@H]5CC[C@@]4(C)[C@]3(C)CC[C@@]2(NC(=O)C(C)(C)NC(=O)OC(C)(C)C)CC1=O [Example 75] |  |  | < 3 | < 50 |
| CC(C)C1=C2[C@H]3CC[C@@H]4[C@@]5(C)CC[C@H](OC(=O)[C@H]6C[C@@H](C(=O)O)C6(C)C)C(C)(C)[C@@H]5CC[C@@]4(C)[C@]3(C)CC[C@@]2(NC(=O)C(C)(C)NC(=O)[C@@H]2CCCN2)CC1=O [Example 76, (1R,3S)-3-((((3aR,5aR,5bR,7aR,9S,11aR,11bR,13aS)-1-isopropyl-5a,5b,8,8,11a-pentamethyl-3a-(2-methyl-2-((S)-pyrrolidine-2-carboxamido)propanamido)-2-oxo-3,3a,4,5,5a,5b,6,7,7a,8,9,10,11,11a,11b,12,13,13a-octadecahydro-2H-cyclopenta[a]chrysen-9-yl)oxy)carbonyl)-2,2-dimethylcyclobutane-1-carboxylic acid hydrochloride] |  |  | < 3 | 50 to 200 |
